In patent US20230085307A1, “PYRIDAZINONE COMPOUND AND HERBICIDE” (NISSAN CHEMICAL CORPORATION, priority 2019, published 2023):

How the values were obtained:
oval-leafed pondweed = assay: Test Example 1: herbicidal activity, application before weed generation under submerged conditions (Table 16, symbol C); assay type: in vivo, oval-leafed pondweed (Monochoria vaginalis)
Summary of the method: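 Emulsion formulation, water-diluted to set dose, was put onto the flooded surface (4 cm depth, alluvial soil) the same day weeds were sown and 2.5-leaf rice transplanted. After 3 weeks at 25-30 °C under glass, each species was rated 0 (≤5% kill) to 5 (≥90% kill).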

redroot pigweed = assay: Test Example 4: herbicidal effect by soil treatment (Table 19, symbol N); assay type: in vivo, redroot pigweed (Amaranthus retroflexus)
Summary of the method: (§1)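 Herbicidal effect was rated 3 weeks after treatment, using the scoring criteria of an earlier test. The compound, formulated as an emulsion and diluted in water to a set herbicide amount, had been sprayed uniformly on soil over freshly sown seeds. Growth took place in a greenhouse at 25° C. to 30° C.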

persian speedwell = assay: Test Example 4: herbicidal effect by soil treatment (Table 19, symbol R); assay type: in vivo, Persian speedwell (Veronica persica)
Summary of the method: as §1

barnyard grass = assay: Test Example 5: herbicidal effect by foliage application, plastic box (Table 20, symbol H); assay type: in vivo, barnyard grass (Echinochloa crus-galli); settings: foliage application, three weeks after application
Summary of the method: (§2)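 Foliar spray test: emulsion formulation diluted in water to a set application rate, sprayed onto 14-day-old plants raised in diluvial soil at 25° C to 30° C under glass. Both herbicidal effect and crop effect rated visually three weeks later.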

Japanese bulrush = assay: Test Example 2: herbicidal activity, application during weed generation under submerged conditions (Table 17, symbol B); assay type: in vivo, Japanese bulrush (Schoenoplectus juncoides); settings: application during weed generation, submerged conditions
Summary of the method: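 Herbicide emulsion, diluted with water to the chosen amount, is applied onto 4 cm floodwater over alluvial soil where the weeds were co-sown and raised at 25–30° C. Application timing: 1–2 leaves. Assessment: three weeks afterwards.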

wild oat = assay: Test Example 4: herbicidal effect by soil treatment (Table 19, symbol I); assay type: in vivo, wild oat (Avena fatua)
Summary of the method: as §1

velvetleaf [1] = assay: Test Example 4: herbicidal effect by soil treatment (Table 19, symbol M); assay type: in vivo, velvetleaf (Abutilon theophrasti)
Summary of the method: as §1

Italian ryegrass [2] = assay: Test Example 5: herbicidal effect by foliage application, plastic box (Table 20, symbol K); assay type: in vivo, Italian ryegrass (Lolium multiflorum); settings: foliage application, three weeks after application
Summary of the method: as §2

blackgrass = assay: Test Example 5: herbicidal effect by foliage application, plastic box (Table 20, symbol J); assay type: in vivo, blackgrass (Alopecurus myosuroides); settings: foliage application, three weeks after application
Summary of the method: as §2

windgrass = assay: Test Example 4: herbicidal effect by soil treatment (Table 19, symbol L); assay type: in vivo, windgrass (Apera spica-venti)
Summary of the method: as §1

Chinese sprangletop = assay: Test Example 3: herbicidal effect by foliage application, Wagner pot (Table 18, symbol D); assay type: in vivo, chinese sprangletop (Leptochloa chinensis)
Summary of the method: (§3)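 Plants were sown in alluvial soil held under 0.1–0.5 cm standing water and grown 14 days in a greenhouse at 25–30 °C. An emulsifiable formulation, water-diluted to the set dose, was then sprayed onto the foliage, and effects were scored three weeks later using previously defined criteria.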

velvetleaf [3] = assay: Test Example 5: herbicidal effect by foliage application, plastic box (Table 20, symbol M); assay type: in vivo, velvetleaf (Abutilon theophrasti); settings: foliage application, three weeks after application
Summary of the method: as §2

rice flat sedge = assay: Test Example 3: herbicidal effect by foliage application, Wagner pot (Table 18, symbol E); assay type: in vivo, rice flat sedge (Cyperus iria)
Summary of the method: as §3

Italian ryegrass [4] = assay: Test Example 4: herbicidal effect by soil treatment (Table 19, symbol K); assay type: in vivo, Italian ryegrass (Lolium multiflorum)
Summary of the method: as §1

lambsquarters = assay: Test Example 4: herbicidal effect by soil treatment (Table 19, symbol O); assay type: in vivo, lambsquarters (Chenopodium album)
Summary of the method: as §1

green foxtail = assay: Test Example 4: herbicidal effect by soil treatment (Table 19, symbol G); assay type: in vivo, green foxtail (Setaria viridis)
Summary of the method: as §1

[5] = amount of applied herbicide 320 g/ha
[6] = amount of applied herbicide 390 g/ha

| SMILES | Herbicidal effect, C: oval-leafed pondweed (oval-leafed pondweed; [5]) | N: redroot pigweed, herbicidal effect grade (redroot pigweed; [5]) | R: persian speedwell, herbicidal effect grade (persian speedwell; [5]) | herbicidal effect on barnyard grass (H) (barnyard grass; 320 g/ha) | herbicidal effect rating, B: Japanese bulrush (Japanese bulrush; AAH 320 g/ha) | I: wild oat, herbicidal effect grade (wild oat; [5]) | M: velvetleaf, herbicidal effect grade (velvetleaf [1]; [5]) | herbicidal effect on Italian ryegrass (K) (Italian ryegrass [2]; 320 g/ha) | herbicidal effect on blackgrass (J) (blackgrass; 320 g/ha) | L: windgrass, herbicidal effect grade (windgrass; [5]) | Herbicidal effect on D (Chinese sprangletop), foliage application (Chinese sprangletop; [5]) | herbicidal effect on velvetleaf (M) (velvetleaf [3]; 320 g/ha) | Herbicidal effect on E (rice flat sedge), foliage application (rice flat sedge; [5]) | K: Italian ryegrass, herbicidal effect grade (Italian ryegrass [4]; [5]) | O: lambsquarters, herbicidal effect grade (lambsquarters; [5]) | G: green foxtail, herbicidal effect grade (green foxtail; [5]) | also measured |
| --- | --- | --- | --- | --- | --- | --- | --- | --- | --- | --- | --- | --- | --- | --- | --- | --- | --- |
| CCOc1ccccc1-c1sc2c(Cl)c(OCC)ccc2c1-c1c(O)c(C)nn(C)c1=O [7-004] | 0 (Herbicidal rate of 5% or less (almost no effect)) | 4 (Herbicidal rate of 70% or more and less than 90%) | 5 (Herbicidal rate of 90% or more (almost completely withered)) | 5 (Herbicidal rate of 90% or more (almost completely withered)) | 3 (Herbicidal rate of 40% or more and less than 70%) | 0 (Herbicidal rate of 5% or less (almost no effect)) | 3 (Herbicidal rate of 40% or more and less than 70%) | 4 (Herbicidal rate of 70% or more and less than 90%) | 5 (Herbicidal rate of 90% or more (almost completely withered)) | 0 (Herbicidal rate of 5% or less (almost no effect)) | 5 (Herbicidal rate of 90% or more (almost completely withered)) | 4 (Herbicidal rate of 70% or more and less than 90%) | 5 (Herbicidal rate of 90% or more (almost completely withered)) | 4 (Herbicidal rate of 70% or more and less than 90%) | 4 (Herbicidal rate of 70% or more and less than 90%) | 5 (Herbicidal rate of 90% or more (almost completely withered)) | – |
| Cc1nn(C)c(=O)c(-c2c(-c3ccc(OCC(F)(F)F)cc3)oc3ccccc23)c1O [8-005] | 4 (Herbicidal rate of 70% or more and less than 90%) | 5 (Herbicidal rate of 90% or more (almost completely withered)) | 4 (Herbicidal rate of 70% or more and less than 90%) | 5 (Herbicidal rate of 90% or more (almost completely withered)) | 3 (Herbicidal rate of 40% or more and less than 70%) | 0 (Herbicidal rate of 5% or less (almost no effect)) | 3 (Herbicidal rate of 40% or more and less than 70%) | 5 (Herbicidal rate of 90% or more (almost completely withered)) | 4 (Herbicidal rate of 70% or more and less than 90%) | 0 (Herbicidal rate of 5% or less (almost no effect)) | 4 (Herbicidal rate of 70% or more and less than 90%) | 5 (Herbicidal rate of 90% or more (almost completely withered)) | 4 (Herbicidal rate of 70% or more and less than 90%) | 5 (Herbicidal rate of 90% or more (almost completely withered)) | 4 (Herbicidal rate of 70% or more and less than 90%) | 4 (Herbicidal rate of 70% or more and less than 90%) | – |
| CSCCOc1ccc(-c2oc3ccccc3c2-c2c(O)c(C)nn(C)c2=O)cc1 [8-008] | 4 (Herbicidal rate of 70% or more and less than 90%) | 4 (Herbicidal rate of 70% or more and less than 90%) | 5 (Herbicidal rate of 90% or more (almost completely withered)) | 5 (Herbicidal rate of 90% or more (almost completely withered)) | 3 (Herbicidal rate of 40% or more and less than 70%) | 0 (Herbicidal rate of 5% or less (almost no effect)) | 2 (Herbicidal rate of 20% or more and less than 40%) | 5 (Herbicidal rate of 90% or more (almost completely withered)) | 5 (Herbicidal rate of 90% or more (almost completely withered)) | 0 (Herbicidal rate of 5% or less (almost no effect)) | 4 (Herbicidal rate of 70% or more and less than 90%) | 5 (Herbicidal rate of 90% or more (almost completely withered)) | 4 (Herbicidal rate of 70% or more and less than 90%) | 4 (Herbicidal rate of 70% or more and less than 90%) | 4 (Herbicidal rate of 70% or more and less than 90%) | 1 (Herbicidal rate of 5% or more and less than 20%) | – |
| COc1ccc(-c2oc3ccc(Cl)cc3c2-c2c(O)c(C)nn(C)c2=O)cc1 [9-002] | 2 (Herbicidal rate of 20% or more and less than 40%) | 4 (Herbicidal rate of 70% or more and less than 90%) | 4 (Herbicidal rate of 70% or more and less than 90%) | 0 (Herbicidal rate of 5% or less (almost no effect)) | 0 (Herbicidal rate of 5% or less (almost no effect)) | 0 (Herbicidal rate of 5% or less (almost no effect)) | 2 (Herbicidal rate of 20% or more and less than 40%) | 3 (Herbicidal rate of 40% or more and less than 70%) | 0 (Herbicidal rate of 5% or less (almost no effect)) | 5 (Herbicidal rate of 90% or more (almost completely withered)) | 0 (Herbicidal rate of 5% or less (almost no effect)) | 5 (Herbicidal rate of 90% or more (almost completely withered)) | 2 (Herbicidal rate of 20% or more and less than 40%) | 3 (Herbicidal rate of 40% or more and less than 70%) | 4 (Herbicidal rate of 70% or more and less than 90%) | 1 (Herbicidal rate of 5% or more and less than 20%) | – |
| CCCC(=O)Oc1c(C)nn(C)c(=O)c1-c1c(-c2ccc(F)cc2)oc2ccc(C)cc12 [9-005] | – | – | – | – | – | – | – | – | – | – | – | – | – | – | – | – | Herbicidal effect, C: oval-leafed pondweed (oval-leafed pondweed; [6]): 3 (Herbicidal rate of 40% or more and less than 70%); N: redroot pigweed, herbicidal effect grade (redroot pigweed; [6]): 3 (Herbicidal rate of 40% or more and less than 70%); R: persian speedwell, herbicidal effect grade (persian speedwell; [6]): 3 (Herbicidal rate of 40% or more and less than 70%); herbicidal effect on barnyard grass (H) (barnyard grass; 390 g/ha): 0 (Herbicidal rate of 5% or less (almost no effect)); herbicidal effect rating, B: Japanese bulrush (Japanese bulrush; AAH 390 g/ha): 1 (Herbicidal rate of 5% or more and less than 20%); I: wild oat, herbicidal effect grade (wild oat; [6]): 0 (Herbicidal rate of 5% or less (almost no effect)); M: velvetleaf, herbicidal effect grade (velvetleaf [1]; [6]): 0 (Herbicidal rate of 5% or less (almost no effect)); herbicidal effect on Italian ryegrass (K) (Italian ryegrass [2]; 390 g/ha): 4 (Herbicidal rate of 70% or more and less than 90%); herbicidal effect on blackgrass (J) (blackgrass; 390 g/ha): 0 (Herbicidal rate of 5% or less (almost no effect)); L: windgrass, herbicidal effect grade (windgrass; [6]): 0 (Herbicidal rate of 5% or less (almost no effect)); Herbicidal effect on D (Chinese sprangletop), foliage application (Chinese sprangletop; [6]): 0 (Herbicidal rate of 5% or less (almost no effect)); herbicidal effect on velvetleaf (M) (velvetleaf [3]; 390 g/ha): 5 (Herbicidal rate of 90% or more (almost completely withered)); Herbicidal effect on E (rice flat sedge), foliage application (rice flat sedge; [6]): 2 (Herbicidal rate of 20% or more and less than 40%); K: Italian ryegrass, herbicidal effect grade (Italian ryegrass [4]; [6]): 0 (Herbicidal rate of 5% or less (almost no effect)); O: lambsquarters, herbicidal effect grade (lambsquarters; [6]): 3 (Herbicidal rate of 40% or more and less than 70%); G: green foxtail, herbicidal effect grade (green foxtail; [6]): 0 (Herbicidal rate of 5% or less (almost no effect)) |
